Reference: ChEMBL document CHEMBL1201862, “PubChem BioAssay data set” (2004)
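Where inhibition never reached the appropriate level, the endpoint shown equals the highest concentration tested. Otherwise, values were interpolated linearly from a five-concentration, 48-hour dose response in 96-well plates. GI50 is the concentration that inhibits growth by half.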 The source made the active and inactive calls. Rule as the data show it: active = GI50 up to about 1.1 µM and inactive = higher. Where a SMILES comes first, the peptide text is derived from it. The star is where a group is joined. Boc = CC(C)(C)OC(=O)*

Columns and labels:
Assay in all cases: growth of human tumour cells (NCI), 48 h
ACHN = system: ACHN
HOP-62 = system: HOP-62
IGROV-1 = system: IGROV-1
M14 = system: M14
MCF7 = system: MCF7
PC-3 = system: PC-3
T47D = system: T47D
TK-10 = system: TK-10
786-0 = system: 786-0
BT-549 = system: BT-549
Hs-578T = system: Hs-578T
U-251 = system: U-251
UO-31 = system: UO-31
DLD-1 = system: DLD-1
DMS-114 = system: DMS-114
KM-20L2 = system: KM-20L2
SNB-78 = system: SNB-78
NCI/ADR-RES = system: NCI/ADR-RES
DMS-273 = system: DMS-273
HOP-18 = system: HOP-18

| SMILES | GI50 (ACHN) | GI50 (HOP-62) | GI50 (IGROV-1) | GI50 (M14) | GI50 (MCF7) | GI50 (PC-3) | GI50 (T47D) | GI50 (TK-10) | GI50 (786-0) | GI50 (BT-549) | GI50 (Hs-578T) | GI50 (U-251) | GI50 (UO-31) | GI50 (DLD-1) | GI50 (DMS-114) | GI50 (KM-20L2) | GI50 (SNB-78) | GI50 (NCI/ADR-RES) | GI50 (DMS-273) | GI50 (HOP-18) |
| --- | --- | --- | --- | --- | --- | --- | --- | --- | --- | --- | --- | --- | --- | --- | --- | --- | --- | --- | --- | --- |
| CC(C)(C)OC(=O)NC(Cc1ccccc1)C(=O)N1CCCC1C(N)=O (stereo not drawn) (Boc-Phe-Pro-NH2; configuration not given here) | > 100 µM (inactive) | > 100 µM (inactive) | > 100 µM (inactive) | > 100 µM (inactive) | > 100 µM (inactive) | > 100 µM (inactive) | > 100 µM (inactive) | > 100 µM (inactive) |  |  |  |  |  |  |  |  |  |  |  |  |
| CC1C2CC(CC2O)C1(C)C (stereo unspecified) | > 100 µM (inactive) | > 100 µM (inactive) | > 100 µM (inactive) | > 100 µM (inactive) |  | > 100 µM (inactive) | > 100 µM (inactive) | > 100 µM (inactive) | > 100 µM (inactive) | > 100 µM (inactive) | > 100 µM (inactive) | > 100 µM (inactive) | > 100 µM (inactive) |  |  |  |  |  |  |  |
| CCOCNC(=O)N(COCC)COCC | > 100 µM (inactive) | > 100 µM (inactive) | > 100 µM (inactive) | > 100 µM (inactive) |  |  |  |  |  |  |  |  | > 100 µM (inactive) | > 100 µM (inactive) | > 100 µM (inactive) | > 100 µM (inactive) | > 100 µM (inactive) |  |  |  |
| CN1CCC(C(O)(c2ccccc2)c2ccc(Br)cc2)CC1 (stereo unspecified) | 31.2 µM (inactive) | 24.8 µM (inactive) | 25.9 µM (inactive) | 15.3 µM (inactive) | 22.6 µM (inactive) | 22.2 µM (inactive) | 23 µM (inactive) | 25.9 µM (inactive) | 14.4 µM (inactive) | > 100 µM (inactive) | 23.8 µM (inactive) | 17.7 µM (inactive) | 12.5 µM (inactive) |  |  |  |  | 34.9 µM (inactive) |  |  |
| C=C(C)[C@@H]1CC[C@@H]2C(=CC[C@]3(C)C([C@H](C)CC/C=C(/C)C(=O)O)CC[C@@]23C)[C@@]1(C)CCC(=O)O (stereo partly specified) | 19 µM (inactive) | 52.8 µM (inactive) | 28.2 µM (inactive) | 29.5 µM (inactive) | 39.6 µM (inactive) | 24.9 µM (inactive) | 45.8 µM (inactive) | 36.6 µM (inactive) | 21.8 µM (inactive) | 21.6 µM (inactive) | 33.3 µM (inactive) | 24.5 µM (inactive) | 16.7 µM (inactive) |  |  |  |  |  |  |  |
| CCCN(CCC)c1cc2c(cc1F)c(=O)c(C(=O)O)cn2-c1ccc(N2CCN(C)CC2)cn1 |  | 16.7 µM (inactive) | 12.9 µM (inactive) | 16.9 µM (inactive) | 14.9 µM (inactive) | 19 µM (inactive) | 17 µM (inactive) | 10.4 µM (inactive) | 15.8 µM (inactive) | 10.7 µM (inactive) | 17 µM (inactive) | 25.5 µM (inactive) | 13.3 µM (inactive) |  |  |  |  | 17.6 µM (inactive) |  |  |
| COc1ccc(-c2cc(O)c3ccc(C)nc3n2)cc1 | > 100 µM (inactive) | > 100 µM (inactive) | 43.2 µM (inactive) | > 100 µM (inactive) | > 100 µM (inactive) |  | 96.8 µM (inactive) | > 100 µM (inactive) |  | > 100 µM (inactive) | > 100 µM (inactive) |  | > 100 µM (inactive) |  |  |  |  | > 100 µM (inactive) |  |  |
| CCOC(=O)C(Cc1ccc(N=NN(C)C)cc1)NC(=O)CC1c2ccccc2-c2ccccc21 (stereo unspecified) | 35.6 µM (inactive) | > 100 µM (inactive) | 69.8 µM (inactive) | > 100 µM (inactive) |  |  |  | > 100 µM (inactive) | 82.4 µM (inactive) |  |  | 39.7 µM (inactive) | > 100 µM (inactive) | 48.1 µM (inactive) | > 100 µM (inactive) |  |  |  | 55.3 µM (inactive) |  |
| CC(C)C(=O)/C=C/c1c(Cl)cccc1Cl | 4.74 µM (inactive) | 5.83 µM (inactive) | 3.75 µM (inactive) | 2.61 µM (inactive) | 3.76 µM (inactive) | 11.5 µM (inactive) | 2.95 µM (inactive) | 12.1 µM (inactive) | 7.74 µM (inactive) | 2.64 µM (inactive) | 2.35 µM (inactive) | 3.82 µM (inactive) | 4.3 µM (inactive) |  |  |  |  | 3.04 µM (inactive) |  |  |
| Cc1ccc(N2C(=O)/C(=C3\SC(C(N)=O)=C(N)N3c3ccccc3)SC2=S)cc1 | 66.1 µM (inactive) | 25.8 µM (inactive) | > 100 µM (inactive) |  |  |  |  | > 100 µM (inactive) |  |  |  | 71.6 µM (inactive) | > 100 µM (inactive) | 90.8 µM (inactive) |  |  |  |  |  | 37.7 µM (inactive) |
| CCOC(=O)Oc1cc2ccsc2c2c1c1ccccc1n2C(=O)OCC | 28.3 µM (inactive) | 37.3 µM (inactive) | > 100 µM (inactive) | 31.3 µM (inactive) | 59 µM (inactive) | 38.2 µM (inactive) | 28.6 µM (inactive) | 50 µM (inactive) | 34.1 µM (inactive) | 59 µM (inactive) | 36.4 µM (inactive) | 45 µM (inactive) | 24.2 µM (inactive) |  |  |  |  | 38 µM (inactive) |  |  |
| O=C(Cc1nc2ccc(C(=O)c3ccccc3)cc2nc1O)C(=O)Nc1nc2ccccc2[nH]1 | 86.7 µM (inactive) | 33.3 µM (inactive) | 93.5 µM (inactive) | 82.6 µM (inactive) |  |  |  | 49.3 µM (inactive) | > 100 µM (inactive) |  |  |  | 60.3 µM (inactive) |  | 23.8 µM (inactive) | 63.5 µM (inactive) |  |  | 20.9 µM (inactive) | 77.1 µM (inactive) |
| CSc1nc2c(c(N3CCOCC3)n1)C(O)n1c(nc3ccccc31)S2 (stereo unspecified) | 36.6 µM (inactive) | 40.6 µM (inactive) | > 100 µM (inactive) | > 100 µM (inactive) | 23 µM (inactive) | 37.2 µM (inactive) | 25.9 µM (inactive) | 47.5 µM (inactive) | 44.3 µM (inactive) | 30.5 µM (inactive) | 23.7 µM (inactive) | 20.8 µM (inactive) | 3.93 µM (inactive) |  |  |  |  | 22.6 µM (inactive) |  |  |
| COc1cc(O)c2c(=O)cc(C3(O)C=CC(=O)C=C3)oc2c1 | < 0.045 µM (active) | 0.182 µM (active) | < 0.01 µM (active) | 0.542 µM (active) |  | 0.131 µM (active) | 0.378 µM (active) | 0.0658 µM (active) |  | 0.363 µM (active) | 0.968 µM (active) | < 0.0405 µM (active) | 0.0733 µM (active) |  |  |  |  | 0.0588 µM (active) |  |  |
| CC(Cc1ccccc1)Nc1ncnc2c1ncn2C1OC(CO)CC1O (stereo unspecified) | > 100 µM (inactive) | > 100 µM (inactive) | > 100 µM (inactive) | > 100 µM (inactive) | 0.611 µM (active) | > 100 µM (inactive) | > 100 µM (inactive) | > 100 µM (inactive) | > 100 µM (inactive) | > 100 µM (inactive) | 58.7 µM (inactive) | > 100 µM (inactive) | > 100 µM (inactive) |  |  |  |  | > 100 µM (inactive) |  |  |
| COc1cccc2c(Nc3ccc(S(=O)(=O)Nc4ncccn4)cc3)c3ccc([N+](=O)[O-])cc3nc12 | 7.06 µM (inactive) | 85.3 µM (inactive) | 4.13 µM (inactive) | 45.1 µM (inactive) | 47.1 µM (inactive) | 40.6 µM (inactive) | 8.22 µM (inactive) | > 100 µM (inactive) | 23.6 µM (inactive) | 59.7 µM (inactive) | > 100 µM (inactive) | 48.5 µM (inactive) | 5.66 µM (inactive) |  |  |  |  |  |  |  |
